Where “and” joins values, the source holds several entries; their conditions need not be identical. Equal values may be shown once.
Test system: 186277-243-T-J2-PDC multi-cell spheroid viability
Experiment: Anticancer human tumor 186277-243-T-J2-PDC patient-derived colon adenocarcinoma cell line growth inhibition [PI3K]
Conditions: for viability, T/C: stronger effect = lower value
Procedure, shortened: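 Combination activity was assessed by viability in multicellular tumor spheroids carrying HUVEC and MSC components. Agents were tested with PI3K inhibitors from a Cmax-based top dose (or 10 microM) downward in half-log increments.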

[1] = curve of first compound, second compound 0.00316 µM
[2] = curve of first compound, second compound 0.01 µM
[3] = curve of first compound, second compound 0.0316 µM
[4] = curve of first compound, second compound 0.1 µM
[5] = curve of first compound, second compound 0.316 µM
[6] = curve of first compound, second compound 1 µM
[7] = second compound 0.00316 µM, first compound 0.0316 µM
[8] = second compound 0.00316 µM, first compound 0.1 µM
[9] = second compound 0.00316 µM, first compound 0.316 µM
[10] = second compound 0.00316 µM, first compound 1 µM
[11] = second compound 0.00316 µM, first compound 3.16 µM
[12] = second compound 0.00316 µM, first compound 10 µM
[13] = second compound 0.01 µM, first compound 0.0316 µM
[14] = second compound 0.01 µM, first compound 0.1 µM
[15] = second compound 0.01 µM, first compound 0.316 µM
[16] = second compound 0.01 µM, first compound 1 µM
[17] = second compound 0.01 µM, first compound 3.16 µM
[18] = second compound 0.01 µM, first compound 10 µM
[19] = second compound 0.0316 µM, first compound 0.0316 µM
[20] = second compound 0.0316 µM, first compound 0.1 µM
[21] = second compound 0.0316 µM, first compound 0.316 µM
[22] = second compound 0.0316 µM, first compound 1 µM
[23] = second compound 0.0316 µM, first compound 3.16 µM
[24] = second compound 0.0316 µM, first compound 10 µM
[25] = second compound 0.1 µM, first compound 0.0316 µM
[26] = second compound 0.1 µM, first compound 0.1 µM
[27] = second compound 0.1 µM, first compound 0.316 µM
[28] = second compound 0.1 µM, first compound 1 µM
[29] = second compound 0.1 µM, first compound 3.16 µM
[30] = second compound 0.1 µM, first compound 10 µM
[31] = second compound 0.316 µM, first compound 0.0316 µM
[32] = second compound 0.316 µM, first compound 0.1 µM
[33] = second compound 0.316 µM, first compound 0.316 µM
[34] = second compound 0.316 µM, first compound 1 µM
[35] = second compound 0.316 µM, first compound 3.16 µM
[36] = second compound 0.316 µM, first compound 10 µM
[37] = second compound 1 µM, first compound 0.0316 µM
[38] = second compound 1 µM, first compound 0.1 µM
[39] = second compound 1 µM, first compound 0.316 µM
[40] = second compound 1 µM, first compound 1 µM
[41] = second compound 1 µM, first compound 3.16 µM
[42] = second compound 1 µM, first compound 10 µM
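Further: spheroids exposed to compounds for seven days before viability reading.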
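Wherever viability, T/C is given: 100% = DMSO vehicle control viability.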

For `CCCS(=O)(=O)Nc1ccc(F)c(C(=O)c2c[nH]c3ncc(-c4ccc(Cl)cc4)cc23)c1F` + CC(Nc1ccc2c(c1)OCCn1cc(N3C(=O)OCC3C(F)F)nc1-2)C(N)=O, the IC50 [1] was 4740 nM, the IC50 [2] was 5430 nM and the IC50 [3] was 5340 nM. The IC50 [4] was 5030 nM, the IC50 [5] was 4570 nM and the IC50 [6] was 4110 nM. It also gave a viability, T/C [7] of 108%, a viability, T/C [8] of 91.5% and a viability, T/C [9] of 92.4%. The viability, T/C [10] was 83.9%, the viability, T/C [11] was 77.4% and the viability, T/C [12] was 6.03%. For the same compound, the viability, T/C [13] was 118%, the viability, T/C [14] was 90.4% and the viability, T/C [15] was 83.8%. It also gave a viability, T/C [16] of 90.5%, a viability, T/C [17] of 89.9% and a viability, T/C [18] of 5.05%. The viability, T/C [19] was 112%, the viability, T/C [20] was 103% and the viability, T/C [21] was 102%. The viability, T/C [22] was 95.6%, the viability, T/C [23] was 88.7% and the viability, T/C [24] was 6.11%. It also gave a viability, T/C [25] of 101%, a viability, T/C [26] of 105% and a viability, T/C [27] of 118%. The viability, T/C [28] was 113%, the viability, T/C [29] was 81.2% and the viability, T/C [30] was 4%. For the same compound, the viability, T/C [31] was 81%, the viability, T/C [32] was 80.3% and the viability, T/C [33] was 87.1%. It also gave a viability, T/C [34] of 105%, a viability, T/C [35] of 71.5% and a viability, T/C [36] of 4.62%. The viability, T/C [37] was 59%, the viability, T/C [38] was 60.9% and the viability, T/C [39] was 70.4%. The viability, T/C [40] was 65.1%, the viability, T/C [41] was 63.2% and the viability, T/C [42] was 5.04%.
With `CC(=O)c1c(C)c2cnc(Nc3ccc(N4CCNCC4)cn3)nc2n(C2CCCC2)c1=O` + CC(Nc1ccc2c(c1)OCCn1cc(N3C(=O)OCC3C(F)F)nc1-2)C(N)=O the IC50 [1] was greater than 100 nM, the IC50 [2] was greater than 100 nM and the IC50 [3] was greater than 100 nM. It also gave an IC50 [4] greater than 100 nM, an IC50 [5] of 96.4 nM and an IC50 [6] of less than 0.316 nM. The viability, T/C (second compound 0.00316 µM, first compound 0.000316 µM) was 114%, the viability, T/C (second compound 0.00316 µM, first compound 0.001 µM) was 89.2% and the viability, T/C (second compound 0.00316 µM, first compound 0.00316 µM) was 82.3%. It also gave a viability, T/C (second compound 0.00316 µM, first compound 0.01 µM) of 98.5%, a viability, T/C [7] of 118% and a viability, T/C [8] of 137%. It also gave a viability, T/C (second compound 0.01 µM, first compound 0.000316 µM) of 94%, a viability, T/C (second compound 0.01 µM, first compound 0.001 µM) of 94.8% and a viability, T/C (second compound 0.01 µM, first compound 0.00316 µM) of 89.8%. For the same compound, the viability, T/C (second compound 0.01 µM, first compound 0.01 µM) was 101%, the viability, T/C [13] was 119% and the viability, T/C [14] was 132%. The viability, T/C (second compound 0.0316 µM, first compound 0.000316 µM) was 119%, the viability, T/C (second compound 0.0316 µM, first compound 0.001 µM) was 116% and the viability, T/C (second compound 0.0316 µM, first compound 0.00316 µM) was 91.7%. It also gave a viability, T/C (second compound 0.0316 µM, first compound 0.01 µM) of 96.3%, a viability, T/C [19] of 134% and a viability, T/C [20] of 122%. For the same compound, the viability, T/C (second compound 0.1 µM, first compound 0.000316 µM) was 104%, the viability, T/C (second compound 0.1 µM, first compound 0.001 µM) was 89.3% and the viability, T/C (second compound 0.1 µM, first compound 0.00316 µM) was 102%. It also gave a viability, T/C (second compound 0.1 µM, first compound 0.01 µM) of 98.6%, a viability, T/C [25] of 101% and a viability, T/C [26] of 89.4%. It also gave a viability, T/C (second compound 0.316 µM, first compound 0.000316 µM) of 85.3%, a viability, T/C (second compound 0.316 µM, first compound 0.001 µM) of 73.6% and a viability, T/C (second compound 0.316 µM, first compound 0.00316 µM) of 73.2%. It also gave a viability, T/C (second compound 0.316 µM, first compound 0.01 µM) of 76.1%, a viability, T/C [31] of 63.5% and a viability, T/C [32] of 49.3%. The viability, T/C (second compound 1 µM, first compound 0.000316 µM) was 49.7%, the viability, T/C (second compound 1 µM, first compound 0.001 µM) was 43.5% and the viability, T/C (second compound 1 µM, first compound 0.00316 µM) was 47.5%. The viability, T/C (second compound 1 µM, first compound 0.01 µM) was 41.2%, the viability, T/C [37] was 35.7% and the viability, T/C [38] was 29.6%.
`CCN1CCN(Cc2ccc(Nc3ncc(F)c(-c4cc(F)c5nc(C)n(C(C)C)c5c4)n3)nc2)CC1` was tested, and the viability, T/C (compound 0.00316 µM) was 102% [middle of 4 runs], the viability, T/C (compound 0.01 µM) was 101% [middle of 4 runs] and the viability, T/C (compound 0.0316 µM) was 106% [middle of 4 runs]. For the same compound, the viability, T/C (compound 0.1 µM) was 130% [middle of 4 runs], the viability, T/C (compound 0.316 µM) was 146% and 156% and 145% (2×) and the viability, T/C (compound 1 µM) was 146% [middle of 4 runs]. It also gave an IC50 (curve of compound) greater than 1000 nM.
`CNC(=O)c1ccc(N2C(=S)N(c3ccc(C#N)c(C(F)(F)F)c3)C(=O)C2(C)C)cc1F` + COc1c(OCCCN2CCOCC2)ccc2c3n(c(=NC(=O)c4cnc(N)nc4)nc12)CCN3 gave an IC50 [1] greater than 10000 nM, an IC50 [2] greater than 10000 nM and an IC50 [3] greater than 10000 nM. For the same compound, the IC50 [4] was less than 31.6 nM, the IC50 [5] was less than 31.6 nM and the IC50 [6] was less than 31.6 nM. The viability, T/C [7] was 110%, the viability, T/C [8] was 113% and the viability, T/C [9] was 111%. For the same compound, the viability, T/C [10] was 88.2%, the viability, T/C [11] was 112% and the viability, T/C [12] was 107%. The viability, T/C [13] was 98.8%, the viability, T/C [14] was 121% and the viability, T/C [15] was 103%. For the same compound, the viability, T/C [16] was 94.8%, the viability, T/C [17] was 112% and the viability, T/C [18] was 115%. The viability, T/C [19] was 88.9%, the viability, T/C [20] was 85.6% and the viability, T/C [21] was 81.3%. It also gave a viability, T/C [22] of 81.7%, a viability, T/C [23] of 95.3% and a viability, T/C [24] of 73.4%. It also gave a viability, T/C [25] of 23.3%, a viability, T/C [26] of 20.2% and a viability, T/C [27] of 21.5%. For the same compound, the viability, T/C [28] was 17.8%, the viability, T/C [29] was 19.6% and the viability, T/C [30] was 22.7%. It also gave a viability, T/C [31] of 6.01%, a viability, T/C [32] of 6.73% and a viability, T/C [33] of 4.24%. The viability, T/C [34] was 5.77%, the viability, T/C [35] was 7.13% and the viability, T/C [36] was 5.44%. It also gave a viability, T/C [37] of 3.23%, a viability, T/C [38] of 2.22% and a viability, T/C [39] of 3.19%. For the same compound, the viability, T/C [40] was 1.9%, the viability, T/C [41] was 2.85% and the viability, T/C [42] was 4.06%.
Work on `Cn1nccc1Nc1nccc(-c2ccn(C(CO)c3ccc(Cl)c(F)c3)c(=O)c2)n1` (stereo not given) + CC(Nc1ccc2c(c1)OCCn1cc(N3C(=O)OCC3C(F)F)nc1-2)C(N)=O yielded an IC50 [1] of 1870 nM, an IC50 [2] of 1770 nM and an IC50 [3] of 1470 nM. For the same compound, the IC50 [4] was 377 nM, the IC50 [5] was 74.7 nM and the IC50 [6] was less than 31.6 nM. The viability, T/C [7] was 105%, the viability, T/C [8] was 114% and the viability, T/C [9] was 113%. For the same compound, the viability, T/C [10] was 69.3%, the viability, T/C [11] was 37.2% and the viability, T/C [12] was 22.8%. The viability, T/C [13] was 111%, the viability, T/C [14] was 121% and the viability, T/C [15] was 109%. The viability, T/C [16] was 67.3%, the viability, T/C [17] was 33.5% and the viability, T/C [18] was 22%. For the same compound, the viability, T/C [19] was 103%, the viability, T/C [20] was 110% and the viability, T/C [21] was 98.4%. For the same compound, the viability, T/C [22] was 61.1%, the viability, T/C [23] was 28.1% and the viability, T/C [24] was 20.9%. The viability, T/C [25] was 124%, the viability, T/C [26] was 86.5% and the viability, T/C [27] was 54.2%. It also gave a viability, T/C [28] of 28.9%, a viability, T/C [29] of 16.4% and a viability, T/C [30] of 7.14%. The viability, T/C [31] was 70.4%, the viability, T/C [32] was 44.5% and the viability, T/C [33] was 20.3%. The viability, T/C [34] was 15.9%, the viability, T/C [35] was 9.67% and the viability, T/C [36] was 4.2%. It also gave a viability, T/C [37] of 38.1%, a viability, T/C [38] of 29.4% and a viability, T/C [39] of 14.2%. The viability, T/C [40] was 9.05%, the viability, T/C [41] was 10.6% and the viability, T/C [42] was 3.67%.
